Assay results as given in article PMC7291858, “An Enhanced Variant Designed From DLP4 Cationic Peptide Against Staphylococcus aureus CVCC 546” (Frontiers in Microbiology, 2020).
Peptide text beside a SMILES is read from it.

System: S. aureus ATCC 43300
Type: cell-based, Staphylococcus aureus
Conditions: microtiter, serial 2-fold dilutions, 37°C, 16∼20 h, triplicate; – = no activity
Description: The minimal inhibitory concentration (MIC) was evaluated by a microtiter plate assay ([Wiegand et al., 2008]). Serial 2-fold dilutions of test peptides were placed into a 96-well plate containing identical bacterial inoculum and incubated at 37°C for 16∼20 h. Vancomycin was used as antibiotic control. The MIC value was defined as the lowest peptide concentration where no visible growth occurred. All tests were made in triplicate.

SMILES	A1 (MIC against S. aureus ATCC 43300) [µg/mL]
CC[C@H](C)[C@@H]1NC(=O)[C@@H]2CSSC[C@@H](C(=O)N[C@@H](CCCNC(=N)N)C(=O)N[C@@H](CCCCN)C(=O)O)NC(=O)[C@H](CC(N)=O)NC(=O)[C@@H]3CSSC[C@H](NC(=O)[C@H](C)NC(=O)[C@H](C)NC(=O)[C@H](Cc4c[nH]cn4)NC(=O)CNC(=O)[C@H](C(C)C)NC(=O)[C@H](CCCCN)NC(=O)[C@H](Cc4ccccc4)NC(=O)[C@@H]4CCCN4C(=O)[C@H](CO)NC(=O)[C@H](CC(C)C)NC(=O)[C@H]([C@@H](C)CC)NC(=O)[C@H](CC(=O)O)NC(=O)[C@@H](NC(=O)[C@@H](NC(=O)[C@H](C)N)[C@@H](C)O)CSSC[C@H](NC(=O)[C@H](Cc4c[nH]c5ccccc45)NC(=O)CNC(=O)CNC(=O)[C@H](CCCNC(=N)N)NC(=O)[C@H](CCCCN)NC(=O)CNC(=O)[C@H](CCCNC(=N)N)NC(=O)[C@H](C)NC1=O)C(=O)N[C@@H](CC(=O)O)C(=O)N[C@@H](CCCCN)C(=O)N[C@@H](CCCNC(=N)N)C(=O)N[C@@H](C)C(=O)N[C@@H](C(C)C)C(=O)N3)C(=O)N[C@@H](C)C(=O)N[C@@H](C)C(=O)N[C@@H](Cc1c[nH]cn1)C(=O)N2 [ID4] (HELM PEPTIDE1{A.T.C.D.I.L.S.P.F.K.V.G.H.A.A.C.A.A.H.C.I.A.R.G.K.R.G.G.W.C.D.K.R.A.V.C.N.C.R.K}$PEPTIDE1,PEPTIDE1,3:R3-30:R3|PEPTIDE1,PEPTIDE1,16:R3-36:R3|PEPTIDE1,PEPTIDE1,20:R3-38:R3$$$V2.0; N-terminus and C-terminus assumed; bridges inferred)	32
CC[C@H](C)[C@@H]1NC(=O)[C@@H]2CSSC[C@@H](C(=O)N[C@@H](CCCNC(=N)N)C(=O)N[C@@H](CCCCN)C(=O)O)NC(=O)[C@H](CC(N)=O)NC(=O)[C@@H]3CSSC[C@H](NC(=O)[C@H](C)NC(=O)[C@H](C)NC(=O)[C@H](Cc4c[nH]cn4)NC(=O)CNC(=O)[C@H](C(C)C)NC(=O)[C@H](CCCCN)NC(=O)[C@H](Cc4ccccc4)NC(=O)[C@@H]4CCCN4C(=O)[C@H](CO)NC(=O)[C@H]([C@@H](C)CC)NC(=O)[C@H](CC(C)C)NC(=O)[C@H](CC(=O)O)NC(=O)[C@@H](NC(=O)[C@@H](NC(=O)[C@H](C)N)[C@@H](C)O)CSSC[C@H](NC(=O)[C@H](Cc4c[nH]c5ccccc45)NC(=O)CNC(=O)CNC(=O)[C@H](CCCNC(=N)N)NC(=O)[C@H](CCCCN)NC(=O)CNC(=O)[C@H](CCCNC(=N)N)NC(=O)[C@H](C)NC1=O)C(=O)N[C@@H](CC(=O)O)C(=O)N[C@@H](CCCCN)C(=O)N[C@@H](CCCNC(=N)N)C(=O)N[C@@H](C)C(=O)N[C@@H](C(C)C)C(=O)N3)C(=O)N[C@@H](C)C(=O)N[C@@H](C)C(=O)N[C@@H](Cc1c[nH]cn1)C(=O)N2 [ID5] (HELM PEPTIDE1{A.T.C.D.L.I.S.P.F.K.V.G.H.A.A.C.A.A.H.C.I.A.R.G.K.R.G.G.W.C.D.K.R.A.V.C.N.C.R.K}$PEPTIDE1,PEPTIDE1,3:R3-30:R3|PEPTIDE1,PEPTIDE1,16:R3-36:R3|PEPTIDE1,PEPTIDE1,20:R3-38:R3$$$V2.0; N-terminus and C-terminus assumed; bridges inferred)	16
CC[C@H](C)[C@@H]1NC(=O)[C@@H]2CSSC[C@@H](C(=O)N[C@@H](CCCNC(=N)N)C(=O)N[C@@H](CCCCN)C(=O)O)NC(=O)[C@H](CC(N)=O)NC(=O)[C@@H]3CSSC[C@H](NC(=O)[C@H](C)NC(=O)[C@H](C)NC(=O)[C@H](Cc4c[nH]cn4)NC(=O)CNC(=O)[C@H](C(C)C)NC(=O)[C@H](CCCCN)NC(=O)[C@H](Cc4ccccc4)NC(=O)[C@H](CCCCN)NC(=O)[C@H](CO)NC(=O)[C@H](CC(C)C)NC(=O)[C@H](CC(C)C)NC(=O)[C@H](CC(=O)O)NC(=O)[C@@H](NC(=O)[C@@H](NC(=O)[C@H](C)N)[C@@H](C)O)CSSC[C@H](NC(=O)[C@H](Cc4c[nH]c5ccccc45)NC(=O)CNC(=O)CNC(=O)[C@H](CCCNC(=N)N)NC(=O)[C@H](CCCCN)NC(=O)CNC(=O)[C@H](CCCNC(=N)N)NC(=O)[C@H](C)NC1=O)C(=O)N[C@@H](CC(=O)O)C(=O)N[C@@H](CCCCN)C(=O)N[C@@H](CCCNC(=N)N)C(=O)N[C@@H](C)C(=O)N[C@@H](C(C)C)C(=O)N3)C(=O)N[C@@H](C)C(=O)N[C@@H](C)C(=O)N[C@@H](Cc1c[nH]cn1)C(=O)N2 [ID8] (HELM PEPTIDE1{A.T.C.D.L.L.S.K.F.K.V.G.H.A.A.C.A.A.H.C.I.A.R.G.K.R.G.G.W.C.D.K.R.A.V.C.N.C.R.K}$PEPTIDE1,PEPTIDE1,3:R3-30:R3|PEPTIDE1,PEPTIDE1,16:R3-36:R3|PEPTIDE1,PEPTIDE1,20:R3-38:R3$$$V2.0; N-terminus and C-terminus assumed; bridges inferred)	32
CC[C@H](C)[C@@H]1NC(=O)[C@@H]2CSSC[C@@H](C(=O)N[C@@H](CCCNC(=N)N)C(=O)N[C@@H](CCCCN)C(=O)O)NC(=O)[C@H](CC(N)=O)NC(=O)[C@@H]3CSSC[C@H](NC(=O)[C@H](C)NC(=O)[C@H](C)NC(=O)[C@H](Cc4c[nH]cn4)NC(=O)[C@H](CCCCN)NC(=O)[C@H](C(C)C)NC(=O)[C@H](CCCCN)NC(=O)[C@H](Cc4ccccc4)NC(=O)[C@@H]4CCCN4C(=O)[C@H](CO)NC(=O)[C@H](CC(C)C)NC(=O)[C@H](CC(C)C)NC(=O)[C@H](CC(=O)O)NC(=O)[C@@H](NC(=O)[C@@H](NC(=O)[C@H](C)N)[C@@H](C)O)CSSC[C@H](NC(=O)[C@H](Cc4c[nH]c5ccccc45)NC(=O)CNC(=O)CNC(=O)[C@H](CCCNC(=N)N)NC(=O)[C@H](CCCCN)NC(=O)CNC(=O)[C@H](CCCNC(=N)N)NC(=O)[C@H](C)NC1=O)C(=O)N[C@@H](CC(=O)O)C(=O)N[C@@H](CCCCN)C(=O)N[C@@H](CCCNC(=N)N)C(=O)N[C@@H](C)C(=O)N[C@@H](C(C)C)C(=O)N3)C(=O)N[C@@H](C)C(=O)N[C@@H](C)C(=O)N[C@@H](Cc1c[nH]cn1)C(=O)N2 [ID9] (HELM PEPTIDE1{A.T.C.D.L.L.S.P.F.K.V.K.H.A.A.C.A.A.H.C.I.A.R.G.K.R.G.G.W.C.D.K.R.A.V.C.N.C.R.K}$PEPTIDE1,PEPTIDE1,3:R3-30:R3|PEPTIDE1,PEPTIDE1,16:R3-36:R3|PEPTIDE1,PEPTIDE1,20:R3-38:R3$$$V2.0; N-terminus and C-terminus assumed; bridges inferred)	16
